Data published in publication PMC11350758, “Development of Xanthoangelol-Derived Compounds with Membrane-Disrupting Effects against Gram-Positive Bacteria” (Antibiotics, 2024).
≈ marks a conversion by molar mass, not a printed value.

Key:
[1] = tested on: Acinetobacter baumannii ATCC19606; test: MIC, broth microdilution; type: cell-based; conditions: Acinetobacter baumannii ATCC19606; read-out: MIC A. b. 19606
Experimental: (§1) All target derivatives were assessed for their in vitro antibacterial activities using a broth microdilution assay to test their minimum inhibitory concentrations (MICs) against six Gram-positive strains (S. aureus ATCC31007, S. aureus ATCC25923, S. aureus ATCC43300, E. faecalis ATCC29212, B. subtilis ATCC9372, and S. epidermidis ATCC12228) and four Gram-negative strains (A. baumannii ATCC19606, K. pneumonia ATCC10031, E. coli ATCC25922, and P. aeruginosa ATCC27853). These compounds were also evaluated for their hemolytic activities and membrane selectivity by determining their HC50 (the concentration required to lyse 50% of red blood cells) and SI (HC50/MICs) values, respectively, and vancomycin was used as the positive drug.
(§2) MICs of the derivatives were determined by the micro broth dilution method according to the American Clinical and Laboratory Standards Institute (CLSI) standards. Briefly, 2-fold serial dilutions of target compounds were prepared in 96-well plates containing TSB broth. An equal volume of bacterial suspension (10^6 CFU/mL) was then pipetted into each well, and the mixture was incubated at 37 °C for 24 h. […] All biological experiments were repeated three times.

[2] = tested on: Staphylococcus aureus ATCC31007, penicillin-resistant strain; test: MIC, broth microdilution; type: cell-based; conditions: Staphylococcus aureus ATCC31007; read-out: MIC S. a. 31007
Experimental: as §1, §2

[3] = tested on: Staphylococcus epidermidis ATCC12228, erythromycin-susceptible strain; test: MIC, broth microdilution; type: cell-based; conditions: Staphylococcus epidermidis ATCC12228; read-out: MIC S. e. 12228
Experimental: as §1, §2

[4] = tested on: Escherichia coli ATCC25922, penicillin-susceptible strain; test: MIC, broth microdilution; type: cell-based; conditions: Escherichia coli ATCC25922; read-out: MIC E. c. 25922
Experimental: as §1, §2

[5] = tested on: Staphylococcus aureus ATCC25923, erythromycin-susceptible strain; test: MIC, broth microdilution; type: cell-based; conditions: Staphylococcus aureus ATCC25923; read-out: MIC S. a. 25923
Experimental: as §1, §2

[6] = tested on: Klebsiella pneumonia ATCC10031; test: MIC, broth microdilution; type: cell-based; conditions: Klebsiella pneumoniae; Klebsiella pneumonia ATCC10031; read-out: MIC K. p. 10031
Experimental: as §1, §2

[7] = tested on: Pseudomonas aeruginosa ATCC27853, penicillin-susceptible strain; test: MIC, broth microdilution; type: cell-based; conditions: Pseudomonas aeruginosa ATCC27853; read-out: MIC P. a. 27853
Experimental: as §1, §2

[8] = tested on: Enterococcus faecalis ATCC29212, vancomycin-susceptible strain; test: MIC, broth microdilution; type: cell-based; conditions: Enterococcus faecalis ATCC29212; read-out: MIC E. f. 29212
Experimental: as §1, §2

[9] = tested on: Bacillus subtilis ATCC9372, penicillin-susceptible strain; test: MIC, broth microdilution; type: cell-based; conditions: Bacillus subtilis ATCC9372; read-out: MIC B. s. 9372
Experimental: as §1, §2

S. aureus = test: MIC, summary over the S. aureus strains tested; type: cell-based; conditions: Staphylococcus aureus; over the three S. aureus strains tested; read-out: MICs against S. aureus
Experimental: as §1, §2

[10] = tested on: Staphylococcus aureus ATCC43300, methicillin-resistant strain; test: microbe, parasite or virus in culture; type: cell-based; conditions: ATCC 43300 / MRSA; Staphylococcus aureus ATCC43300 (MRSA); read-out: MIC S. a 43300
Experimental: as §1, §2

[11] = tested on: Enterococcus faecium ATCC51559, vancomycin-resistant strain; test: MIC, broth microdilution; type: cell-based; conditions: Enterococcus faecium ATCC51559, vancomycin-resistant; read-out: MIC E. f. 51559
Experimental: as §2

[12] = tested on: Enterococcus faecalis ATCC51299, vancomycin-resistant strain; test: MIC, broth microdilution; type: cell-based; conditions: Enterococcus faecalis ATCC51299, vancomycin-resistant; read-out: MIC E. f. 51299
Experimental: as §2

red blood cells = test: Hemolysis assay; type: cell-based, Sheep; conditions: concentration required to lyse 50% of red blood cells; 37 °C, 1 h
Experimental: as §1
To further detect the hemolytic toxicity and therapeutic potential of these derivatives, we proceeded to examine the hemolytic activities and membrane selectivity of these derivatives. The HC50 value was defined as the concentration needed for a compound to lyse 50% of red blood cells, and it is often used to evaluate the hemolytic toxicity to eukaryotic cells. […] The selectivity index (SI) was calculated by HC50/MICs of S. aureus ATCC43300 and was used to assess the potency and safety of the compounds. […] Thus, compound 9h was selected as a representative molecule for the in-depth in vitro and in vivo studies.
Sheep blood was used to isolate red blood cells (RBCs), which were then resuspended in 1× PBS (5%). The compounds were dissolved in PBS to give an initial concentration of 5.12 mg/mL, compound solution (100 μL) was added to the first well of a 96-well plate, two-fold serial dilutions of compounds were prepared in 96-well plates, and then 150 μL of 5% RBC suspension was added to each well. This was followed by incubation at 37 °C for 1 h. After incubation, the plate was centrifuged (3500 rpm, 5 min), and 100 μL of supernatant solution from each well was carefully pipetted into a new plate. The absorbance values were measured at 540 nm. Erythrocyte hemolysis rate = (Absorbancecompound – Absorbance negative control)/(Absorbance1% Triton X-100 − Absorbance negative control) × 100%. All biological experiments were repeated three times.

[13] = tested on: Gram-positive strains tested; test: MIC, summary over the Gram-positive strains tested; type: cell-based; conditions: read-out: MICs against the Gram-positive strains tested, range over the Gram-positive panel
Experimental: as §1, §2

[14] = tested on: S. aureus ATCC43300 biofilm formation; conditions: 4 μg/mL
Experimental: Bacterial biofilms created by the aggregation of bacteria is considered as one of the main reasons for the development of drug resistance. […] Subsequently, we further assessed the efficiency of 9h to eradicate the preformed biofilm. Matured S. aureus biofilm (grown for 24 h) was treated with compound 9h, and the rate of biofilm disruption was then assessed by the crystal violet staining assay.
Biofilm inhibition assay: S. aureus ATCC43300 was cultured (37 °C, 200 rpm) in MHB broth for 5 h and diluted to 1 × 10^6 CFU/mL. […] The planktonic supernatant cells were discarded and washed with PBS three times. Then, methanol (150 µL) was added to each well for 30 min. After discarding methanol, 0.1% crystal violet solution (150 µL) was added, and biofilms were stained for 15 min. Next, crystal violet solution was removed and washed with PBS three times. Finally, ethanol (150 µL) was pipetted into the wells, and the OD values were measured at 575 nm. The biofilm inhibition (%) = (ODcompound − ODblank)/(ODpositive control − ODblank) × 100%.

SMILES	MIC [1]	MIC [2]	MIC [3]	MIC [4]	MIC [5]	MIC [6]	MIC [7]	MIC [8]	MIC [9]	MIC (S. aureus)	MIC [10]	MIC [11]	MIC [12]	HC50 (red blood cells)	MIC [13]	inhibition of S. aureus biofilm formation [14]
CC(=O)c1ccc2c(c1OCCCN(C)CC(C)(C)CN(C)C)C=CC(C)(CCC=C(C)C)O2 (stereo not shown) [Compound 5g, 1-(5-(3-((3-(Dimethylamino)-2,2-dimethylpropyl)(methyl)amino)propoxy)-2-methyl-2-(4-methylpent-3-en-1-yl)-2H-chromen-6-yl)ethan-1-one]	8 µg/mL (≈ 17 µM)	8 µg/mL (≈ 17 µM)	4 µg/mL (≈ 8.5 µM)	16 µg/mL (≈ 34 µM)	8 µg/mL (≈ 17 µM)	4 µg/mL (≈ 8.5 µM)	128 µg/mL (≈ 272 µM)	8 µg/mL (≈ 17 µM)	8 µg/mL (≈ 17 µM)	8 µg/mL (≈ 17 µM)	8 µg/mL (≈ 17 µM)	16 µg/mL (≈ 34 µM)	32 µg/mL (≈ 68 µM)	183.1 µg/mL	–	–
CC(=O)c1ccc2c(c1OCCCNCCCN1CCCC1)C=CC(C)(CCC=C(C)C)O2 (stereo not shown) [Compound 5h]	4 µg/mL (≈ 8.8 µM)	8 µg/mL (≈ 17.6 µM)	4 µg/mL (≈ 8.8 µM)	8 µg/mL (≈ 17.6 µM)	8 µg/mL (≈ 17.6 µM)	8 µg/mL (≈ 17.6 µM)	16 µg/mL (≈ 35.2 µM)	8 µg/mL (≈ 17.6 µM)	8 µg/mL (≈ 17.6 µM)	8 µg/mL (≈ 17.6 µM)	8 µg/mL (≈ 17.6 µM)	32 µg/mL (≈ 70.4 µM)	32 µg/mL (≈ 70.4 µM)	84.7 µg/mL	–	–
CC[N+](CC)(CC)CCCOc1c2c(c3c(c1C(C)=O)OC(C)(CCC=C(C)C)C=C3)OC(C)(CCC=C(C)C)C=C2 (stereo not shown) [Compound 9a, 3-((6-Acetyl-2,8-dimethyl-2,8-bis(4-methylpent-3-en-1-yl)-2H,8H-pyrano[2,3-f]chromen-5-yl)oxy)-N,N,N-triethylpropan-1-aminium]	128 µg/mL	4 µg/mL	2 µg/mL	> 128 µg/mL	2 µg/mL	> 128 µg/mL	> 128 µg/mL	4 µg/mL	1 µg/mL	2 to 4 µg/mL	4 µg/mL	4 µg/mL	4 µg/mL	40.4 µg/mL	–	–
CCN(CC)CCCOc1c2c(c3c(c1C(C)=O)OC(C)(CCC=C(C)C)C=C3)OC(C)(CCC=C(C)C)C=C2 (stereo not shown) [Compound 9c, 1-(5-(3-(Diethylamino)propoxy)-2,8-dimethyl-2,8-bis(4-methylpent-3-en-1-yl)-2H,8H-pyrano[2,3-f]chromen-6-yl)ethan-1-one]	> 128 µg/mL	2 µg/mL (≈ 3.64 µM)	1 µg/mL (≈ 1.82 µM)	> 128 µg/mL	2 µg/mL (≈ 3.64 µM)	> 128 µg/mL	> 128 µg/mL	1 µg/mL (≈ 1.82 µM)	2 µg/mL (≈ 3.64 µM)	2 to 4 µg/mL (≈ 3.64 to 7.28 µM)	4 µg/mL (≈ 7.28 µM)	4 µg/mL (≈ 7.28 µM)	8 µg/mL (≈ 14.6 µM)	187.6 µg/mL	–	–
CC(=O)c1c(OCCCN2CC(C)OC(C)C2)c2c(c3c1OC(C)(CCC=C(C)C)C=C3)OC(C)(CCC=C(C)C)C=C2 (stereo not shown) [Compound 9d, 1-(5-(3-(2,6-Dimethylmorpholino)propoxy)-2,8-dimethyl-2,8-bis(4-methylpent-3-en-1-yl)-2H,8H-pyrano[2,3-f]chromen-6-yl)ethan-1-one]	> 128 µg/mL	> 128 µg/mL	> 128 µg/mL	> 128 µg/mL	> 128 µg/mL	> 128 µg/mL	> 128 µg/mL	> 128 µg/mL	> 128 µg/mL	–	> 128 µg/mL	> 128 µg/mL	> 128 µg/mL	>1280 µg/mL	> 64 µg/mL	–
CC(=O)c1c(OCCCSC(=N)N)c2c(c3c1OC(C)(CCC=C(C)C)C=C3)OC(C)(CCC=C(C)C)C=C2 (stereo not shown) [Compound 9e, 2-(3-((6-Acetyl-2,8-dimethyl-2,8-bis(4-methylpent-3-en-1-yl)-2H,8H-pyrano[2,3-f]chromen-5-yl)oxy)propyl)isothiouronium]	> 128 µg/mL	128 µg/mL (≈ 232 µM)	128 µg/mL (≈ 232 µM)	> 128 µg/mL	8 µg/mL (≈ 14.5 µM)	> 128 µg/mL	> 128 µg/mL	64 µg/mL (≈ 116 µM)	64 µg/mL (≈ 116 µM)	–	64 µg/mL (≈ 116 µM)	> 128 µg/mL	> 128 µg/mL	>1280 µg/mL	> 64 µg/mL	–
CC[C@H](C)[C@H](NC(=O)[C@H](CCCCN)NC(=O)[C@H](CCC(=O)O)NC(=O)[C@H](CCCCN)NC(=O)[C@H](CO)NC(=O)[C@H](CCCCN)NC(=O)[C@H](CCCNC(=N)N)NC(=O)[C@H](Cc1ccccc1)NC(=O)[C@H](Cc1ccccc1)NC(=O)[C@H](CC(=O)O)NC(=O)CNC(=O)[C@H](CC(C)C)NC(=O)[C@@H](N)CC(C)C)C(=O)NCC(=O)N[C@@H](CCCCN)C(=O)N[C@@H](CCC(=O)O)C(=O)N[C@@H](Cc1ccccc1)C(=O)N[C@@H](CCCCN)C(=O)N[C@@H](CCCNC(=N)N)C(=O)N[C@H](C(=O)N[C@H](C(=O)N[C@@H](CCC(N)=O)C(=O)N[C@@H](CCCNC(=N)N)C(=O)N[C@H](C(=O)N[C@@H](CCCCN)C(=O)N[C@@H](CC(=O)O)C(=O)N[C@@H](Cc1ccccc1)C(=O)N[C@@H](CC(C)C)C(=O)N[C@@H](CCCNC(=N)N)C(=O)N[C@@H](CC(N)=O)C(=O)N[C@@H](CC(C)C)C(=O)N[C@H](C(=O)N1CCC[C@H]1C(=O)N[C@@H](CCCNC(=N)N)C(=O)N[C@H](C(=O)N[C@@H](CCC(=O)O)C(=O)N[C@@H](CO)C(=O)O)[C@@H](C)O)C(C)C)[C@@H](C)CC)C(C)C)[C@@H](C)CC [LL-37, reference compound]	–	–	–	–	–	–	–	–	–	–	–	–	–	–	–	55.41%
